According to patent US9758524B2, “4-imidazopyridazin-1-yl-benzamides as Btk inhibitors” (Merck Sharp & Dohme B.V., priority 2011, dated 2017):
Where two headings read alike, the source gives them in different places.

Legend:
FynT enzyme = FynT enzyme (Homo sapiens (Human), UniProt P06241); assay: FynT enzyme activity (IMAP fluorescence polarization assay); assay type: biochemical; details: 60 min pre-incubation, 0.2 μM ATP
Method in brief: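 Human FynT pre-incubated with compounds 60 min at room temperature, then reacted 2 h at room temperature with fluorescein-labelled p34cdc2 peptide (100 nM final). Stopped with IMAP binding solution; fluorescence polarization read after 60 min. Activity as % of ±ATP control difference; EC50 by curve fitting.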

Lyn enzyme = Lyn enzyme (Homo sapiens (Human), UniProt P07948); assay: Lyn enzyme activity (IMAP fluorescence polarization assay)
Src enzyme = Src enzyme (Homo sapiens (Human), UniProt P12931); assay: Src enzyme activity (IMAP fluorescence polarization assay); details: read-out: EC50 Src activity values; IMAP, 60 min pre-incubation, 4 μM ATP
Lck enzyme = Lck enzyme (Homo sapiens (Human), UniProt P06239); assay: Lck enzyme activity (IMAP fluorescence polarization assay)
Btk enzyme (His-Btk) = Btk enzyme (His-Btk) (Homo sapiens (Human), UniProt Q06187); assay: Btk enzyme activity (IMAP fluorescence polarization assay)
[1] = read-out: EC50 Lyn activity values, 60 min pre-incubation, 2 μM ATP, bin bound in μM
[2] = read-out: EC50 Lck activity values, IMAP, 60 min pre-incubation, 6 μM ATP, bin bound in μM
[3] = read-out: EC50 Btk activity values, IMAP, 60 min pre-incubation, 5 μM ATP, bin bound in nM
[4] = IMAP, 60 min pre-incubation, 5 μM ATP, bin bound in nM
[5] = IMAP, 60 min pre-incubation, 6 μM ATP, bin bound in μM
[6] = IMAP, 60 min pre-incubation, 5 μM ATP, bin bound in μM

Chain of Src enzyme (P12931 whole entry, looked up): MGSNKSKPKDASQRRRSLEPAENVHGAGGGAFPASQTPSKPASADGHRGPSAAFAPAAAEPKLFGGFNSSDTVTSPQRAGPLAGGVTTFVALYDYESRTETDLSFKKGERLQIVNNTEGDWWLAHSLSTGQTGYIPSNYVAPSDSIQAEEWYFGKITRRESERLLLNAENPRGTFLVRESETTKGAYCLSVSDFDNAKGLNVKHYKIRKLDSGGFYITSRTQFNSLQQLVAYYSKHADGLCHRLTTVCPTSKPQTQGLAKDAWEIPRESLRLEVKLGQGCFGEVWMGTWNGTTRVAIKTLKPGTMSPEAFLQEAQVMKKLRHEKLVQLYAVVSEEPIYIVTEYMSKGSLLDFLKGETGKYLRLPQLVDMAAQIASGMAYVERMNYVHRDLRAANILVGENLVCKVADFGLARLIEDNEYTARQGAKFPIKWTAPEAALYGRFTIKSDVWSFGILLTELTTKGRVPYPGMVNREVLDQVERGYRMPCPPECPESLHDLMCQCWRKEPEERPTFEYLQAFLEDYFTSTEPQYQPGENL
Chain of Btk enzyme (His-Btk) (Q06187 whole entry): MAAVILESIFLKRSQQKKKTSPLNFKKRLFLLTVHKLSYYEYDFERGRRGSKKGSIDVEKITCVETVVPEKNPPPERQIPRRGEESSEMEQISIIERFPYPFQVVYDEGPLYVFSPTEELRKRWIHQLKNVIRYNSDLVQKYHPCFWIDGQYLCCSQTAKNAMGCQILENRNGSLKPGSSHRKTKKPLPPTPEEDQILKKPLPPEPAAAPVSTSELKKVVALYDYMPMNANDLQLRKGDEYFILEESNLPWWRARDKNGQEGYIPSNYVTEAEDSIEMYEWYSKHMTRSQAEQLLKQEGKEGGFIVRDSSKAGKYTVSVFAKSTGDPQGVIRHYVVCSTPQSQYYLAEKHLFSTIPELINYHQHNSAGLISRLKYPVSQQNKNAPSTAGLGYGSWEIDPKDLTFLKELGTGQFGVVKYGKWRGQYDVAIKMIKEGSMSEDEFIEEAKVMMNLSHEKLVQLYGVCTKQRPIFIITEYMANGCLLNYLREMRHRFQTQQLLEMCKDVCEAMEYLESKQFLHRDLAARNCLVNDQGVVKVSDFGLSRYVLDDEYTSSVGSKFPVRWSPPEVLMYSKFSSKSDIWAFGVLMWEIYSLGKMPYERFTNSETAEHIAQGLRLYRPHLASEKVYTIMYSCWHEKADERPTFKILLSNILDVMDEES
Chain of FynT enzyme (P06241 other isoform, or with tags, fused parts or gaps): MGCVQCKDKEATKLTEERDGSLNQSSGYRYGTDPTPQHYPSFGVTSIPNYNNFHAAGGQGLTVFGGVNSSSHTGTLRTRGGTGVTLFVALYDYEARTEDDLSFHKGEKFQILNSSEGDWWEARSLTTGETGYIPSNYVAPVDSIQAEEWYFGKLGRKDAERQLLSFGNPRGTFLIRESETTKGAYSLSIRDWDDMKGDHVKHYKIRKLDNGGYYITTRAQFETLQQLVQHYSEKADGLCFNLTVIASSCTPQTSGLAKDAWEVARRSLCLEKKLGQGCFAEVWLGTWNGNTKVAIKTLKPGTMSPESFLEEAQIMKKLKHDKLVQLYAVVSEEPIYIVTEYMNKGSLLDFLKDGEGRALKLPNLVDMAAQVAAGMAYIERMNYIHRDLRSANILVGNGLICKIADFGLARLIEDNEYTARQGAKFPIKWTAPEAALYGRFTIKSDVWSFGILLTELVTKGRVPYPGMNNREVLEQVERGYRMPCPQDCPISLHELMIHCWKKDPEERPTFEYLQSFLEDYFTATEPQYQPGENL
Chain of Lyn enzyme (P07948 whole entry): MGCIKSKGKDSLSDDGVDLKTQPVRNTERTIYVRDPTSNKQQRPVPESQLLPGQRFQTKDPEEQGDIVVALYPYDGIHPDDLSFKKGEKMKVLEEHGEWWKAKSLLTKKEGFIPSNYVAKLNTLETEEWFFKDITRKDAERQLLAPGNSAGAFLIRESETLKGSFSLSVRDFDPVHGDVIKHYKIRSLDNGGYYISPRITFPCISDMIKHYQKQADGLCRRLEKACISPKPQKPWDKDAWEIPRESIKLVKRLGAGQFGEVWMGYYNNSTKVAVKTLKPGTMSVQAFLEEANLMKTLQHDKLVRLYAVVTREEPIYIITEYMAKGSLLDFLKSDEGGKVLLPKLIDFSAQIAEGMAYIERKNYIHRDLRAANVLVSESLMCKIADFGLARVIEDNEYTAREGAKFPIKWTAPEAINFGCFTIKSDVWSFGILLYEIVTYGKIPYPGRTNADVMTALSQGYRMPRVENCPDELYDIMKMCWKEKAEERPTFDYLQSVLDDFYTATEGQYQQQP
Chain of Lck enzyme (P06239 whole entry): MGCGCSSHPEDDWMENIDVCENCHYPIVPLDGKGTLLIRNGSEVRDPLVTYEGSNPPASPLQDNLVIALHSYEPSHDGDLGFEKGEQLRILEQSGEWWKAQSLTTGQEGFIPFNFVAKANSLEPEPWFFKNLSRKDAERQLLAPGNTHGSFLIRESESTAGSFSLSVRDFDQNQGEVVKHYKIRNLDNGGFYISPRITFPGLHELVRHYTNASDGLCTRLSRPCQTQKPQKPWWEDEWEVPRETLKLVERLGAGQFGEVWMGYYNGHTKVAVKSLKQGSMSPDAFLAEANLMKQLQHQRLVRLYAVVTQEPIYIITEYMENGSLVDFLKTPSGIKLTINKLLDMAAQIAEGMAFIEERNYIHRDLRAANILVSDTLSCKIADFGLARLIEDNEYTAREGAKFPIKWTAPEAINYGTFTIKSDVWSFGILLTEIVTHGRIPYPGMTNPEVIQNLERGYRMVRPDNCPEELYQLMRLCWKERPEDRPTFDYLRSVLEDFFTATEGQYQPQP

| Structure (SMILES) | EC50 (FynT enzyme) | EC50 (Lyn enzyme; [1]) | EC50 (Src enzyme) | EC50 (Lck enzyme; [2]) | EC50 (Btk enzyme (His-Btk); [3]) | EC50 (Btk enzyme (His-Btk)) | EC50 Btk activity values (Btk enzyme (His-Btk); [4]) | EC50 Lyn activity values (Lyn enzyme; 60 min pre-incubation, 2 μM ATP, bin bound in μM) | EC50 (Lyn enzyme; EC50 Lyn activity values, 60 min pre-incubation, 2 μM ATP, bin bound in nM) | EC50 (Lck enzyme) | EC50 Lck activity values (Lck enzyme; [5]) | EC50 Btk activity values (Btk enzyme (His-Btk); [6]) |
| --- | --- | --- | --- | --- | --- | --- | --- | --- | --- | --- | --- | --- |
| CC#CC(=O)N1CCCC[C@H]1c1nc(-c2ccc(C(=O)Nc3cc(F)ccn3)cc2)c2c(N)nccn12 [Example 44, (S)-4-(8-amino-3-(1-but-2-ynoylpiperidin-2-yl)imidazo[1,5-a]pyrazin-1-yl)-N-(4-fluoropyridin-2-yl)benzamide] | ≥ 1 µM | ≥ 1 µM | ≥ 1 µM | ≥ 1 µM | < 10 nM |  |  |  |  |  |  |  |
| CC#CC(=O)N1CCC[C@H]1c1nc(-c2ccc(C(=O)Nc3cc(C)ccn3)cc2)c2c(N)nccn12 [Example 8, (S)-4-(8-Amino-3-(1-but-2-ynoylpyrrolidin-2-yl)imidazo[1,5-a]pyrazin-1-yl)-N-(4-methylpyridin-2-yl)benzamide] | ≥ 1 µM | ≥ 1 µM | ≥ 1 µM | ≥ 1 µM | < 10 nM |  |  |  |  |  |  |  |
| C=CC(=O)N1CCC[C@H]1c1nc(-c2ccc(C(=O)Nc3ccccn3)c(OC)c2)c2c(N)nccn12 [Example 14, (S)-4-(3-(1-Acryloylpyrrolidin-2-yl)-8-aminoimidazo[1,5-a]pyrazin-1-yl)-2-methoxy-N-(pyridin-2-yl)benzamide] | ≥ 1 µM | ≥ 1 µM | ≥ 1 µM | ≥ 1 µM | < 10 nM |  |  |  |  |  |  |  |
| Nc1nccn2c([C@@H]3CCCN3C(=O)c3ccnc(Cl)n3)nc(-c3ccc(C(=O)Nc4ccccn4)cc3)c12 [Example 5, (S)-4-(8-amino-3-(1-(2-chloropyrimidine-4-carbonyl)pyrrolidin-2-yl)imidazo[1,5-a]pyrazin-1-yl)-N-(pyridin-2-yl)benzamide] | ≥ 1 µM | ≥ 1 µM | ≥ 1 µM | ≥ 1 µM |  | 10 to 100 nM | <100 nM |  |  |  |  |  |
| C=CS(=O)(=O)N1CCCC[C@H]1c1nc(-c2ccc(C(=O)Nc3ccccn3)cc2C)c2c(N)nccn12 [Example 66, 4-(8-amino-3-((S)-1-(vinylsulfonyl)piperidin-2-yl)imidazo[1,5-a]pyrazin-1-yl)-3-methyl-N-(pyridin-2-yl)benzamide] | ≥ 1 µM | ≥ 1 µM | ≥ 1 µM | ≥ 1 µM | < 10 nM |  |  |  |  |  |  |  |
| CN(C)C/C=C/C(=O)N1CCC[C@H]1c1nc(-c2ccc(C(=O)Nc3cc(F)ccn3)cc2)c2c(N)nccn12 [Example 7, (S,E)-4-(8-Amino-3-(1-(4-(dimethylamino)but-2-enoyl)pyrrolidin-2-yl)imidazo[1,5-a]pyrazin-1-yl)-N-(4-fluoropyridin-2-yl)benzamide] | ≥ 1 µM | ≥ 1 µM | ≥ 1 µM | ≥ 1 µM |  | 10 to 100 nM | <100 nM |  |  |  |  |  |
| CC#CC(=O)N1CCC[C@H]1c1nc(-c2ccc(C(=O)Nc3nc4c(s3)CCCC4)cc2)c2c(N)nccn12 [Example 12, (S)-4-(8-Amino-3-(1-but-2-ynoylpyrrolidin-2-yl)imidazo[1,5-a]pyrazin-1-yl)-N-(4,5,6,7-tetrahydrobenzo[d]thiazol-2-yl)benzamide] | ≥ 1 µM | ≥ 1 µM | ≥ 1 µM | ≥ 1 µM | < 10 nM |  |  |  |  |  |  |  |
| CC#CC(=O)N1CCCC[C@H]1c1nc(-c2ccc(C(=O)Nc3cccnn3)cc2)c2c(N)nccn12 [Example 23, (S)-4-(8-Amino-3-(1-but-2-ynoylpiperidin-2-yl)imidazo[1,5-a]pyrazin-1-yl)-N-(pyridazin-3-yl)benzamide] | ≥ 1 µM | ≥ 1 µM | ≥ 1 µM | ≥ 1 µM | < 10 nM |  |  |  |  |  |  |  |
| COC/C=C/C(=O)N1CCC[C@H]1c1nc(-c2ccc(C(=O)Nc3ccccn3)c(F)c2)c2c(N)nccn12 [Example 52] | ≥ 1 µM | ≥ 1 µM | ≥ 1 µM | ≥ 1 µM |  | 100 to 1000 nM |  |  |  |  |  | <1000 nM |
| COC/C=C/C(=O)N1CCC[C@H]1c1nc(-c2ccc(C(=O)Nc3cc(F)ccn3)cc2)c2c(N)nccn12 [Example 53, (S,E)-4-(8-amino-3-(1-(4-methoxybut-2-enoyl)pyrrolidin-2-yl)imidazo[1,5-a]pyrazin-1-yl)-N-(4-fluoropyridin-2-yl)benzamide] | ≥ 1 µM | ≥ 1 µM | ≥ 1 µM | ≥ 1 µM |  | 100 to 1000 nM |  |  |  |  |  | <1000 nM |

The next lines start with the values.

| EC50 (FynT enzyme) | EC50 (Lyn enzyme; [1]) | EC50 (Src enzyme) | EC50 (Lck enzyme; [2]) | EC50 (Btk enzyme (His-Btk); [3]) | EC50 (Btk enzyme (His-Btk)) | EC50 Btk activity values (Btk enzyme (His-Btk); [4]) | EC50 Lyn activity values (Lyn enzyme; 60 min pre-incubation, 2 μM ATP, bin bound in μM) | EC50 (Lyn enzyme; EC50 Lyn activity values, 60 min pre-incubation, 2 μM ATP, bin bound in nM) | EC50 (Lck enzyme) | EC50 Lck activity values (Lck enzyme; [5]) | EC50 Btk activity values (Btk enzyme (His-Btk); [6]) | Structure (SMILES) |
| --- | --- | --- | --- | --- | --- | --- | --- | --- | --- | --- | --- | --- |
| ≥ 1 µM | ≥ 1 µM | ≥ 1 µM | ≥ 1 µM | < 10 nM |  |  |  |  |  |  |  | CC#CC(=O)N1CCCC[C@H]1c1nc(-c2ccc(C(=O)Nc3cc(CCC)ccn3)c(OC)c2)c2c(N)nccn12 [Example 110, (S)-4-(8-amino-3-(1-but-2-ynoylpiperidin-2-yl)imidazo[1,5-a]pyrazin-1-yl)-2-methoxy-N-(4-propylpyridin-2-yl)benzamide] |
| ≥ 1 µM | ≥ 1 µM | ≥ 1 µM | ≥ 1 µM | < 10 nM |  |  |  |  |  |  |  | CC#CC(=O)N1CCC[C@H]1c1nc(-c2ccc(C(=O)Nc3cc(C#N)ccn3)cc2)c2c(N)nccn12 [Example 130, (S)-4-(8-amino-3-(1-but-2-ynoylpyrrolidin-2-yl)imidazo[1,5-a]pyrazin-1-yl)-N-(4-cyanopyridin-2-yl)benzamide] |
| ≥ 1 µM | ≥ 1 µM | ≥ 1 µM | ≥ 1 µM |  | 10 to 100 nM | <100 nM |  |  |  |  |  | COC/C=C/C(=O)N1CCCC[C@H]1c1nc(-c2ccc(C(=O)Nc3cc(F)ccn3)cc2)c2c(N)nccn12 [Example 81, (S,E)-4-(8-amino-3-(1-(4-methoxybut-2-enoyl)piperidin-2-yl)imidazo[1,5-a]pyrazin-1-yl)-N-(4-fluoropyridin-2-yl)benzamide] |
| ≥ 1 µM | ≥ 1 µM | ≥ 1 µM | ≥ 1 µM |  | 10 to 100 nM | <100 nM |  |  |  |  |  | CN(C)C/C=C/C(=O)N1CCCC[C@H]1c1nc(-c2ccc(C(=O)Nc3cccnn3)cc2)c2c(N)nccn12 [Example 73, (S,E)-4-(8-amino-3-(1-(4-(dimethylamino)but-2-enoyl)piperidin-2-yl)imidazo[1,5-a]pyrazin-1-yl)-N-(pyridazin-3-yl)benzamide] |
| ≥ 1 µM | ≥ 1 µM | ≥ 1 µM | ≥ 1 µM | < 10 nM |  |  |  |  |  |  |  | CC#CC(=O)N1CCC[C@H]1c1nc(-c2ccc(C(=O)Nc3cc(CC)ccn3)cc2)c2c(N)nccn12 [Example 131, (S)-4-(8-amino-3-(1-but-2-ynoylpyrrolidin-2-yl)imidazo[1,5-a]pyrazin-1-yl)-N-(4-ethylpyridin-2-yl)benzamide] |
| ≥ 1 µM | ≥ 1 µM | ≥ 1 µM | ≥ 1 µM |  | 10 to 100 nM | <100 nM |  |  |  |  |  | COC/C=C/C(=O)N1CCC[C@H]1c1nc(-c2ccc(C(=O)Nc3cc(C#N)ccn3)cc2)c2c(N)nccn12 [Example 98, (S,E)-4-(8-amino-3-(1-(4-methoxybut-2-enoyl)pyrrolidin-2-yl)imidazo[1,5-a]pyrazin-1-yl)-N-(4-cyanopyridin-2-yl)benzamide] |
| ≥ 1 µM | ≥ 1 µM | ≥ 1 µM | ≥ 1 µM | < 10 nM |  |  |  |  |  |  |  | CCCc1ccnc(NC(=O)c2ccc(-c3nc([C@@H]4CCCCN4C(=O)/C=C/COC)n4ccnc(N)c34)cc2)c1 [Example 121, (S,E)-4-(8-amino-3-(1-(4-methoxybut-2-enoyl)piperidin-2-yl)imidazo[1,5-a]pyrazin-1-yl)-N-(4-propylpyridin-2-yl)benzamide] |
| ≥ 1 µM |  | ≥ 1 µM |  | < 10 nM |  |  | <1 µM | 0.1 to 1 µM | 0.1 to 1 µM | <1 µM |  | C=CC(=O)N1CCC[C@H]1c1nc(-c2ccc(C(=O)Nc3cc(C)ccn3)cc2)c2c(N)nccn12 [Example 124, (S)-4-(3-(1-acryloylpyrrolidin-2-yl)-8-aminoimidazo[1,5-a]pyrazin-1-yl)-N-(4-methylpyridin-2-yl)benzamide] |
| ≥ 1 µM | ≥ 1 µM | ≥ 1 µM | ≥ 1 µM |  | 100 to 1000 nM |  |  |  |  |  | <1000 nM | Nc1nccn2c([C@@H]3CCCCN3C(=O)c3ccnc(Cl)n3)nc(-c3ccc(C(=O)Nc4cccnn4)cc3)c12 [Example 74, (S)-4-(8-amino-3-(1-(2-chloropyrimidine-4-carbonyl)piperidin-2-yl)imidazo[1,5-a]pyrazin-1-yl)-N-(pyridazin-3-yl)benzamide] |
| ≥ 1 µM | ≥ 1 µM | ≥ 1 µM |  |  | 100 to 1000 nM |  |  |  | 0.1 to 1 µM | <1 µM | <1000 nM | Nc1nccn2c([C@@H]3CCCN3C(=O)/C=C/c3ccccc3)nc(-c3ccc(C(=O)Nc4ccccn4)cc3)c12 [Example 104, (S,E)-4-(8-amino-3-(1-cinnamoylpyrrolidin-2-yl)imidazo[1,5-a]pyrazin-1-yl)-N-(pyridin-2-yl)benzamide] |
